According to ChEMBL document CHEMBL5149973, “Agaricus bisporus-Derived Glucosamine Hydrochloride Facilitates Skeletal Injury Repair through Bmp Signaling in Zebrafish Osteoporosis Model” (J Nat Prod, 2021):
The source made the active and inactive calls.

Columns and labels:
[1] = Induction of Zebrafish embryo skeletal development assessed as mortality rate of embryo at 0.03 % measured after 72 hrs post fertilization by Alcian blue staining based assay; type: functional, Danio rerio
[2] = Induction of Zebrafish embryo skeletal development assessed as mortality rate of embryo at 0.1 % measured after 72 hrs post fertilization by Alcian blue staining based assay; type: functional, Danio rerio
[3] = Induction of Zebrafish embryo skeletal development assessed as mortality rate of embryo at 0.5 % measured after 72 hrs post fertilization by Alcian blue staining based assay; type: functional, Danio rerio
[4] = Induction of Zebrafish Larva cartilage development assessed as increase in H3 phenotype ratio at 0.05 % measured after 5 days post fertilization by Alcian blue staining based assay; type: functional, Danio rerio; conditions: time 5 day
Danio rerio [5] = organism: Danio rerio; test: Induction of Zebrafish Larva cartilage development assessed as increase in bone mineralization at 0.05 to 0.3 % measured at 6 days post fertilization by Alizarin red staining based assay; type: functional; conditions: dose 0.05-0.3 %, time 6.0 day
[6] = Induction of Zebrafish Larva cartilage development assessed as increase in bone mineralization at 0.3 % measured at 6 days post fertilization by Alizarin red staining based assay; type: functional, Danio rerio; conditions: time 6 day
[7] = Induction of Zebrafish Larva caudal fin regeneration measured for 15 days by Calcein staining based assay; type: functional, Danio rerio; conditions: time 15 day
Danio rerio [8] = organism: Danio rerio; test: Induction of Zebrafish embryo skeletal development assessed as upregulation of col10a1a gene expression in operculum at 0.01 to 0.3 % measured after 72 hrs post fertilization by […] analysis; type: functional; conditions: dose 0.01-0.3 %
Danio rerio [9] = organism: Danio rerio; test: Induction of Zebrafish embryo skeletal development assessed as upregulation of col10a1a gene expression in palatoquadrate at 0.01 to 0.3 % measured after 72 hrs post fertilization by […] analysis; type: functional, tissue-based; conditions: dose 0.01-0.3 %
Danio rerio [10] = organism: Danio rerio; test: Induction of Zebrafish embryo skeletal development assessed as upregulation of […] gene expression in dent at 0.01 to 0.3 % measured after 72 hrs post fertilization by […] analysis; type: functional, tissue-based; conditions: dose 0.01-0.3 %
Osteoblast [11] = test: Induction of osteoblast differentiation in Zebrafish embryo assessed as upregulation of runx2b gene expression in parasphenoid measured at 0.75 to 72 hrs post fertilization at 0.05 to 0.3 % by […] analysis; type: functional; conditions: Danio rerio, dose 0.05-0.3 %, time 0.75-72 hrs
Osteoblast [12] = test: Induction of osteoblast differentiation in Zebrafish embryo assessed as upregulation of runx2b gene expression in head measured at 0.75 to 72 hrs post fertilization at 0.05 to 0.3 % by […] analysis; type: functional; conditions: Danio rerio, dose 0.05-0.3 %, time 0.75-72 hrs
Osteoblast [13] = test: Induction of osteoblast differentiation in Zebrafish embryo assessed as upregulation of sox9a gene expression in head measured at 0.75 to 72 hrs post fertilization at 0.05 to 0.3 % by […] analysis; type: functional; conditions: Danio rerio, dose 0.05-0.3 %, time 0.75-72 hrs
Osteoblast [14] = test: Induction of osteoblast differentiation in transgenic osx mCherry Zebrafish embryo assessed as increase in sp7 mRNA expression in distal fin rays at 0.1 % measured after 6 days by ISH analysis; type: functional; conditions: Danio rerio, time 6.0 day
Osteoblast [15] = test: Induction of osteoblast differentiation in transgenic osx mCherry Zebrafish embryo assessed as increase in Sox9a mRNA expression in fin at 0.1 % measured after 15 days by semiquantitative PCR analysis; type: functional, tissue-based; conditions: Danio rerio, time 15.0 day
Osteoblast [16] = test: Induction of osteoblast differentiation in transgenic osx mCherry Zebrafish embryo assessed as increase in Sox9b mRNA expression in fin at 0.1 % measured after 15 days by semiquantitative PCR analysis; type: functional, tissue-based; conditions: Danio rerio, time 15.0 day
Osteoblast [17] = test: Induction of osteoblast differentiation in transgenic osx mCherry Zebrafish embryo assessed as increase in Col10a1a mRNA expression in fin at 0.1 % measured after 15 days by semiquantitative PCR analysis; type: functional; conditions: Danio rerio, time 15.0 day
Osteoblast [18] = test: Induction of osteoblast differentiation in transgenic osx mCherry Zebrafish embryo assessed as increase in Col1a2 mRNA expression in fin at 0.1 % measured after 15 days by semiquantitative PCR analysis; type: functional, tissue-based; conditions: Danio rerio, time 15.0 day
Danio rerio [19] = organism: Danio rerio; test: Anti-osteoporosis activity in FAC-induced skeletal injury Zebrafish larvae assessed as increase in BGP mRNA expression level measured for 10 day post fertilization by semiquantitative-PCR analysis; type: functional, organism-based; conditions: Larva
Danio rerio [20] = organism: Danio rerio; test: Anti-osteoporosis activity in FAC-induced skeletal injury Zebrafish assessed as rescue of skeletal density in spine at 0.1 % measured for 10 day post fertilization; type: functional, organism-based
Danio rerio [21] = organism: Danio rerio; test: Anti-osteoporosis activity in FAC-induced skeletal injury Zebrafish assessed as rescue of skeletal density in caudal fins at 0.1 % measured for 10 day post fertilization; type: functional, organism-based
Danio rerio [22] = organism: Danio rerio; test: Anti-osteoporosis activity in FAC-induced skeletal injury Zebrafish assessed as increase in cumulative bone optical density in spine at 0.1 % measured for 10 day post fertilization; type: functional, organism-based
Danio rerio [23] = organism: Danio rerio; test: Induction of Zebrafish embryo skeletal development assessed as increase in Bmp2b mRNA expression level in head at 0.1 to 0.3 % measured at 24 hrs post fertilization by ISH analysis; type: functional, tissue-based; conditions: dose 0.1-0.3 %
Danio rerio [24] = organism: Danio rerio; test: Induction of Zebrafish embryo skeletal development assessed as Bmp2b localization in cytoplasm at 0.1 % measured at 24 to 72 hrs post fertilization; type: functional, tissue-based; conditions: time 24-72 hrs
Danio rerio [25] = organism: Danio rerio; test: Induction of Zebrafish embryo skeletal development assessed as nuclear localization of p-Smad5 in head at 0.1 % measured at 24 to 72 hrs post fertilization by DAPI staining based analysis; type: functional, tissue-based; conditions: time 24-72 hrs
Danio rerio [26] = organism: Danio rerio; test: Induction of Zebrafish embryo skeletal development assessed as nuclear localization of p-Smad1 in tail at 0.1 % measured at 24 to 72 hrs post fertilization by DAPI staining based analysis; type: functional, tissue-based; conditions: time 24-72 hrs
Danio rerio [27] = organism: Danio rerio; test: Induction of Zebrafish embryo skeletal development assessed as nuclear localization of p-Smad5 in tail at 0.1 % measured at 24 to 72 hrs post fertilization by DAPI staining based analysis; type: functional, tissue-based; conditions: time 24-72 hrs
Danio rerio [28] = organism: Danio rerio; test: Induction of Zebrafish embryo skeletal development assessed as increase in gfp expression level in ventral head at 0.05 to 0.3 % measured at 24 to 72 hrs post fertilization by DAPI staining based analysis; type: functional, tissue-based; conditions: dose 0.05-0.3 %, time 24-72 hrs
Danio rerio [29] = organism: Danio rerio; test: Induction of Zebrafish embryo skeletal development assessed as increase in gfp expression level in tail at 0.05 to 0.3 % measured at 24 to 72 hrs post fertilization by DAPI staining based analysis; type: functional, tissue-based; conditions: dose 0.05-0.3 %, time 24-72 hrs
Danio rerio [30] = organism: Danio rerio; test: Induction of transgenic Zebrafish embryo skeletal development assessed as increase in GFP expression level in neural crest at 0.05 to 0.3 % measured at 24 to 72 hrs post fertilization by DAPI staining based analysis; type: functional, tissue-based; conditions: dose 0.05-0.3 %, time 24-72 hrs
Danio rerio [31] = organism: Danio rerio; test: Suppression of Bmp signaling in Zebrafish embryo assessed as reduction in indistinctive tail tissue at 0.1 % measured at 26 hrs post fertilization in presence of dorsomorphin; type: functional; design: scale not given: the % may be the effect or the level left
Danio rerio [32] = organism: Danio rerio; test: Suppression of Bmp signaling in Zebrafish tBr injected mRNA embryos assessed as reduction in slight loss of tail tissue at 2.5 uM measured at 26 hrs post fertilization; type: functional, Embryo; design: scale not given: the % may be the effect or the level left
Danio rerio [33] = organism: Danio rerio; test: Suppression of Bmp signaling in Zebrafish embryos assessed as decrease in sp7 gene expression level at 0.1 % measured at 26 hrs post fertilization by semiquantitative PCR analysis; type: functional, tissue-based; conditions: Embryo
Danio rerio [34] = organism: Danio rerio; test: Suppression of Bmp signaling in mCherry Zebrafish embryos assessed as increase in colocalization in tail by measuring fluorescence intensity at 0.1 % measured at 36 hrs post fertilization; type: functional, organism-based; conditions: Embryo

Measured: Activity

Cl.N[C@@H]1[C@@H](O)[C@H](O)[C@@H](CO)O[C@H]1O
20%: Danio rerio [31]
50%: [7]
16%: [1]
40%: [4]
active: Danio rerio [5] | Danio rerio [8] | Danio rerio [9] | Danio rerio [10] | Osteoblast [11] | Osteoblast [12] | Osteoblast [13] | Osteoblast [14] | Osteoblast [15] | Osteoblast [16] | Osteoblast [17] | Osteoblast [18] | Danio rerio [19] | Danio rerio [20] | Danio rerio [21] | Danio rerio [22] | Danio rerio [23] | Danio rerio [24] | Danio rerio [25] | Danio rerio [26] | Danio rerio [27] | Danio rerio [28] | Danio rerio [29] | Danio rerio [30] | Danio rerio [33] | Danio rerio [34]
80%: Danio rerio [32]
79%: [6]
100%: [3]
24%: [2]
